≈ marks a conversion by molar mass, not a printed value.
Key:
[1] = test system: Myzus persicae; assay: Resistance ratio, LC50 for third instar nymph of carbamates, pyrethroids-resistant Myzus persicae F04-01 (green peach aphid) to LC50 for third instar nymph of Myzus persicae NS; format: functional
[2] = test system: Myzus persicae; assay: Resistance ratio, LC50 for third instar nymph of carbamates, pyrethroids-resistant Myzus persicae JR (green peach aphid) to LC50 for third instar nymph of Myzus persicae NS; format: functional
[3] = test system: Myzus persicae; assay: Insecticidal activity against third-instar nymph of carbamates, pyrethroids-resistant Myzus persicae JR (green peach aphid) in Brassica oleracea leaf disc after 3 days by leaf-dip bioassay; format: functional; conditions: foliar, 72 h
[4] = test system: Myzus persicae; assay: Insecticidal activity against third-instar nymph of Myzus persicae NS (green peach aphid) in Brassica oleracea leaf disc after 3 days by leaf-dip bioassay; format: functional; conditions: foliar, 72 h
[5] = test system: Bemisia tabaci; assay: Resistance ratio, LC50 for second instar nymph of organophosphates-resistant Bemisia tabaci MEX03-02 (sweet potato whitefly) to LC50 for second instar nymph of Bemisia tabaci SUD-S; format: functional
[6] = test system: Bemisia tabaci; assay: Resistance ratio, LC50 for second instar nymph of organophosphates-resistant Bemisia tabaci ISR-02 (sweet potato whitefly) to LC50 for second instar nymph of Bemisia tabaci SUD-S; format: functional
[7] = test system: Bemisia tabaci; assay: Resistance ratio, LC50 for second instar nymph of organophosphates, pyrethroids, buprofezin, pyriproxyfen and pymetrozin-resistant Bemisia tabaci BR-JM03 (sweet potato whitefly) to LC50 for second instar nymph of Bemisia tabaci SUD-S; format: functional
[8] = test system: Bemisia tabaci; assay: Resistance ratio, LC50 for second instar nymph of organophosphates-resistant Bemisia tabaci ESP-00 (sweet potato whitefly) to LC50 for second instar nymph of Bemisia tabaci SUD-S; format: functional
[9] = test system: Bemisia tabaci; assay: Resistance ratio, LC50 for second instar nymph of organophosphates-resistant Bemisia tabaci CRE04-01 (sweet potato whitefly) to LC50 for second instar nymph of Bemisia tabaci SUD-S; format: functional
[10] = test system: Bemisia tabaci; assay: Insecticidal activity against second instar nymph of organophosphates-resistant Bemisia tabaci MEX03-02 (sweet potato whitefly) in cotton plant leaf after 10 days by leaf-dip bioassay; format: functional; conditions: MEX03-02, 240 h
[11] = test system: Bemisia tabaci; assay: Insecticidal activity against second instar nymph of organophosphates-resistant Bemisia tabaci ISR-02 (sweet potato whitefly) in cotton plant leaf after 10 days by leaf-dip bioassay; format: functional; conditions: ISR-02, 240 h
[12] = test system: Bemisia tabaci; assay: Insecticidal activity against second instar nymph of organophosphates, pyrethroids, buprofezin, pyriproxyfen and pymetrozin-resistant Bemisia tabaci BR-JM03 (sweet potato whitefly) in cotton plant leaf after 10 days by leaf-dip bioassay; format: functional; conditions: BR-JM03, 240 h
[13] = test system: Bemisia tabaci; assay: Insecticidal activity against second instar nymph of organophosphates-resistant Bemisia tabaci ESP-00 (sweet potato whitefly) in cotton plant leaf after 10 days by leaf-dip bioassay; format: functional; conditions: ESP-00, 240 h
[14] = test system: Bemisia tabaci; assay: Insecticidal activity against second instar nymph of organophosphates-resistant Bemisia tabaci CRE04-01 (sweet potato whitefly) in cotton plant leaf after 10 days by leaf-dip bioassay; format: functional; conditions: CRE04-01, 240 h
[15] = test system: Myzus persicae; assay: Insecticidal activity against Myzus persicae (green peach aphid) infected first leaf of cabbage plant assessed as phloem-systemic efficacy at 0.032 ug/plant treated with 2 g/L rapeseed oil methylester measured after 7 days on 3rd leaf by phloem mobility bioassay; format: functional
[16] = test system: Myzus persicae; assay: Insecticidal activity against Myzus persicae (green peach aphid) infected first leaf of cabbage plant assessed as phloem-systemic efficacy at 0.16 ug/plant treated with 2 g/L rapeseed oil methylester measured after 7 days on 3rd leaf by phloem mobility bioassay; format: functional
[17] = test system: Myzus persicae; assay: Insecticidal activity against Myzus persicae (green peach aphid) infected first leaf of cabbage plant assessed as phloem-systemic efficacy at 0.8 ug/plant treated with 2 g/L rapeseed oil methylester measured after 7 days on 3rd leaf by phloem mobility bioassay; format: functional
[18] = test system: Myzus persicae; assay: Insecticidal activity against Myzus persicae (green peach aphid) infected first leaf of cabbage plant assessed as phloem-systemic efficacy at 4 ug/plant treated with 2 g/L rapeseed oil methylester measured after 7 days on 3rd leaf by phloem mobility bioassay; format: functional
[19] = test system: Myzus persicae; assay: Insecticidal activity against Myzus persicae (green peach aphid) infected first leaf of cabbage plant assessed as phloem-systemic efficacy at 20 ug/plant treated with 2 g/L rapeseed oil methylester measured after 7 days on 3rd leaf by phloem mobility bioassay; format: functional
[20] = test system: Myzus persicae; assay: Insecticidal activity against Myzus persicae (green peach aphid) infected first leaf of cabbage plant assessed as phloem-systemic efficacy at 100 ug/plant treated with 2 g/L rapeseed oil methylester measured after 7 days on 3rd leaf by phloem mobility bioassay; format: functional
[21] = Lipophilicity, log P of the compound; format: physicochemical; conditions: octanol/water
[22] = test system: Bemisia tabaci; assay: Insecticidal activity against second instar nymph of Bemisia tabaci SUD-S (sweet potato whitefly) in cotton plant leaf after 10 days by leaf-dip bioassay; format: functional; conditions: 240 h
[23] = test system: Myzus persicae; assay: Insecticidal activity against third-instar nymph of carbamates, pyrethroids-resistant Myzus persicae F04-01 (green peach aphid) in Brassica oleracea leaf disc after 3 days by leaf-dip bioassay; format: functional; conditions: F04-01, foliar, 72 h
[24] = test system: Myzus persicae; assay: Insecticidal activity against adult Myzus persicae (green peach aphid) in Brassica oleracea leaf disc treated with 1 g/L rapeseed oil methylester after 3 days by leaf-dip bioassay; format: functional
[25] = test system: Myzus persicae; assay: Insecticidal activity against first instar nymph of Myzus persicae (green peach aphid) in Brassica oleracea leaf disc treated with 1 g/L rapeseed oil methylester after 3 days by leaf-dip bioassay; format: functional
[26] = Dissociation constant, pKa of the compound; format: physicochemical

Compound: CCOC(=O)OC1=C(c2cc(C)ccc2C)C(=O)N[C@]12CC[C@@H](OC)CC2 [SPIROTETRAMAT]
- RatioLC50 [1]: 0.4
- RatioLC50 [2]: 0.9
- LC50 [3]: 0.59 µg/mL (≈ 1.58 µM)
- LC50 [4]: 0.69 µg/mL (≈ 1.85 µM)
- RatioLC50 [5]: 1.9
- RatioLC50 [6]: 2.8
- RatioLC50 [7]: 2.5
- RatioLC50 [8]: 2.8
- RatioLC50 [9]: 3.8
- LC50 [10]: 0.49 µg/mL (≈ 1.31 µM)
- LC50 [11]: 0.72 µg/mL (≈ 1.93 µM)
- LC50 [12]: 0.64 µg/mL (≈ 1.71 µM)
- LC50 [13]: 0.74 µg/mL (≈ 1.98 µM)
- LC50 [14]: 1 µg/mL (≈ 2.68 µM)
- Efficacy [15]: 8.8%
- Efficacy [16]: 22.5%
- Efficacy [17]: 56.7%
- Efficacy [18]: 85.6%
- Efficacy [19]: 100%
- Efficacy [20]: 100%
- logP [21]: 0.3
- LC50 [22]: 0.26 µg/mL (≈ 0.696 µM)
- LC50 [23]: 0.27 µg/mL (≈ 0.723 µM)
- LC95 [24]: 22 ppm
- LC95 [25]: 0.73 ppm
- pKa [26]: 5.2

From ChEMBL document CHEMBL3044601, “Movento®, an innovative ambimobile insecticide for sucking insect pest control in agriculture: Biological profile and field performance” (Crop Prot, 2009)
